Results as given in patent US7118895B2, “Process for producing aglycon by using diglycosidase and flavor-improved food containing the aglycon and converting agent to be used in the process” (Amano Enzyme Inc., priority 2000, dated 2006).

Tested on: Crude diglycosidase
Assay: Examination of pH in the conversion into isoflavone aglycons by diglycosidase using soybean materials
Format: biochemical, Penicillium multicolor IAM7153
Set-up: Decomposition efficiency of genistin family in soymilk / Decomposition efficiency of genistin family in defatted soybean / Decomposition efficiency of daidzin family in defatted soybean: concentration or dose not given beside the values
Method: A substrate solution of 450 μL was prepared by suspending 50 mg of each soybean material (roasted soy flour (manufactured by Fuji Shokuryo K.K.), soymilk (manufactured by Gitoh Shokuhin K.K.), defatted soybean (manufactured by Fuji Seiyu K.K.), concentrated soybean protein (manufactured by Fuji Seiyu K.K.)), and adjusting the pH to 2 to 11 with hydrochloric acid or sodium hydroxide. Each enzyme solution of pH 2–11 wherein diglycosidase activity of crude diglycosidase was adjusted to 1.88 AU/mL was added thereto in an amount of 50 μL and the whole was reacted at 55° C. at the total volume of 500 μL. To the reaction mixture was added 700 μL of ethanol after 0, 1, 3, and 6 hours of the reaction. After stirring and ultrasonication, the mixture was subjected to centrifugal separation at 15,000 rpm and 4° C. for 10 minutes. The supernatant was filtered through a filter and the existence of isoflavone glycosides and aglycon isoflavones contained in the reaction mixture was detected by HLPC (Tables 15 to 26).

Structure (SMILES): O=c1c(-c2ccc(O)cc2)coc2cc(O)cc(O)c12 [genistein]
- Decomposition efficiency of genistin family in defatted soybean (pH2.6, heat treatment of enzyme: no, reaction time 1 h): 17.7%
- Decomposition efficiency of genistin family in defatted soybean (pH2.6, heat treatment of enzyme: no, reaction time 3 h): 32.7%
- Decomposition efficiency of genistin family in defatted soybean (pH2.6, heat treatment of enzyme: no, reaction time 6 h): 34.6%
- Decomposition efficiency of genistin family in defatted soybean (pH3.4, heat treatment of enzyme: no, reaction time 1 h): 56.9%
- Decomposition efficiency of genistin family in defatted soybean (pH3.4, heat treatment of enzyme: no, reaction time 3 h): 62.5%
- Decomposition efficiency of genistin family in defatted soybean (pH3.4, heat treatment of enzyme: no, reaction time 6 h): 68.8%
- Decomposition efficiency of genistin family in defatted soybean (pH3.4, heat treatment of enzyme: yes, reaction time 6 h): 14.1%
- Decomposition efficiency of genistin family in defatted soybean (pH4.8, heat treatment of enzyme: no, reaction time 0 h): 14.5%
- Decomposition efficiency of genistin family in defatted soybean (pH4.8, heat treatment of enzyme: no, reaction time 1 h): 56.1%
- Decomposition efficiency of genistin family in defatted soybean (pH4.8, heat treatment of enzyme: no, reaction time 3 h): 61.9%
- Decomposition efficiency of genistin family in defatted soybean (pH4.8, heat treatment of enzyme: no, reaction time 6 h): 68.5%
- Decomposition efficiency of genistin family in defatted soybean (pH4.8, heat treatment of enzyme: yes, reaction time 6 h): 25.2%
- Decomposition efficiency of genistin family in defatted soybean (pH5.4, heat treatment of enzyme: no, reaction time 0 h): 14.5%
- Decomposition efficiency of genistin family in defatted soybean (pH5.4, heat treatment of enzyme: no, reaction time 1 h): 51.5%
- Decomposition efficiency of genistin family in defatted soybean (pH5.4, heat treatment of enzyme: no, reaction time 3 h): 55.4%
- Decomposition efficiency of genistin family in defatted soybean (pH5.4, heat treatment of enzyme: no, reaction time 6 h): 60.3%
- Decomposition efficiency of genistin family in defatted soybean (pH5.4, heat treatment of enzyme: yes, reaction time 6 h): 48.0%
- Decomposition efficiency of genistin family in defatted soybean (pH6.6, heat treatment of enzyme: no, reaction time 1 h): 49.3%
- Decomposition efficiency of genistin family in defatted soybean (pH6.6, heat treatment of enzyme: no, reaction time 3 h): 51.4%
- Decomposition efficiency of genistin family in defatted soybean (pH6.6, heat treatment of enzyme: no, reaction time 6 h): 53.7%
- Decomposition efficiency of genistin family in defatted soybean (pH6.6, heat treatment of enzyme: yes, reaction time 6 h): 46.4%
- Decomposition efficiency of genistin family in defatted soybean (pH7.8, heat treatment of enzyme: no, reaction time 1 h): 36.7%
- Decomposition efficiency of genistin family in defatted soybean (pH7.8, heat treatment of enzyme: no, reaction time 3 h): 42.5%
- Decomposition efficiency of genistin family in defatted soybean (pH7.8, heat treatment of enzyme: no, reaction time 6 h): 45.7%
- Decomposition efficiency of genistin family in defatted soybean (pH7.8, heat treatment of enzyme: yes, reaction time 6 h): 22.0%
